According to patent US8153359B2, “Toxicity assay based on human blastocyst-derived stem cells and progenitor cells” (Cellartis AB, priority 2006, dated 2012):

How the values were obtained:
hBS cells [1] = assay: Cytotoxicity test, viability by ATP content (CellTiterGlo), hBS cells; format: cell-based, human; settings: hBS cells set to 1
[2] = system: human foreskin fibroblasts (hFFs); assay: Cytotoxicity test, viability by Resazurin reduction, hFFs; format: cell-based; settings: relative to hBS cells = 1
[3] = system: human foreskin fibroblasts (hFFs); assay: Cytotoxicity test, viability by ATP content, hFFs; format: cell-based; settings: relative to hBS cells = 1
hBS MPs [4] = assay: Cytotoxicity test, viability by Resazurin reduction, hBS MPs (progenitor cells); format: cell-based, human; settings: relative to hBS cells = 1
hBS cells [5] = assay: Cytotoxicity test, viability by Resazurin reduction, hBS cells; format: cell-based, human; settings: hBS cells set to 1
hBS MPs [6] = assay: Cytotoxicity test, viability by ATP content, hBS MPs (progenitor cells); format: cell-based, human; settings: relative to hBS cells = 1
[7] = system: hBS cells, hBS MPs and hFFs; assay: Cytotoxicity test, comparison over all cell types (hBS cells, progenitor cells, hFF); settings: FIG. 3

Compound | Ratio between the IC50 values measured using the ATP assay, hBS cells (hBS cells [1]) | Ratio between the IC50 values measured using the Rezasurin assay, hFF [2] | Ratio between the IC50 values measured using the ATP assay, hFF [3] | Ratio between the IC50 values measured using the Rezasurin assay, Progenitors (hBS MPs [4]) | Ratio between the IC50 values measured using the Rezasurin assay, hBS cells (hBS cells [5]) | Ratio between the IC50 values measured using the ATP assay, Progenitors (hBS MPs [6]) | toxic reaction [7]
O=c1[nH]cc(F)c(=O)[nH]1 [5-FU, 5-Fluorouracil] | 1 | 2.5 | 7 | 1 | 1 | 2 | 
CC1=C(/C=C/C(C)=C/C=C/C(C)=C/C(=O)O)C(C)(C)CCC1 [ATRA, all-trans retinoic acid] | 1 | >6 | >4 | 0.0005 | 1 | 0.0001 | 
CC1=C(/C=C/C(C)=C/C=C/C(C)=C\C(=O)O)C(C)(C)CCC1 [13CRA, 13-cis retinoic acid] | 1 | >7 | >6 | 0.000001 | 1 | 0.000025 | 
O=C1NS(=O)(=O)c2ccccc21.[Na] [Saccharin, Sodium Saccharin] |  |  |  |  |  |  | no toxic reaction
